Results from patent US20110212997A1, “PIPERIDINE-4-ACETAMIDE DERIVATIVES AND THEIR USE AS MONOAMINE NEUROTRANSMITTER RE-UPTAKE INHIBITORS” (NEUROSEARCH A/S, priority 2008, published 2011).
Where a name gives a salt, the structure may show the parent alone.

Compound | melting point
CCN(C(=O)CC1CCNCC1)c1ccc(Cl)c(Cl)c1Cl (as salt: fumaric acid salt) [Compound C10, N-Ethyl-2-piperidin-4-yl-N-(2,3,4-trichloro-phenyl)-acetamide] | 62 to 64 °C
CCN(C(=O)CC1CCN(C)CC1)c1cccc2ccccc12 (as salt: fumaric acid salt) [Compound D3, N-Ethyl-2-(1-methyl-piperidin-4-yl)-N-naphthalen-1-yl-acetamide] | 63 to 66 °C
CN1CCC(CC(=O)Nc2ccc(Cl)c(Cl)c2)CC1 (as salt: fumaric acid salt) [Compound D6, N-(3,4-Dichloro-phenyl)-2-(1-methyl-piperidin-4-yl)-acetamide] | 180 to 183 °C
CCN(C(=O)CC1CCN(C)CC1)c1cccc(Cl)c1Cl (as salt: fumaric acid salt) [Compound D8, N-(2,3-Dichloro-phenyl)-N-ethyl-2-(1-methyl-piperidin-4-yl)-acetamide] | 51 to 53 °C
CN1CCC(CC(=O)N(C)c2ccc(Cl)c(Cl)c2)CC1 (as salt: fumaric acid salt) [Compound D12, N-(3,4-Dichloro-phenyl)-N-methyl-2-(1-methyl-piperidin-4-yl)-acetamide] | 57 to 59 °C
CCN(C(=O)CC1CCN(C)CC1)c1ccc(Cl)cc1Cl (as salt: fumaric acid salt) [Compound D14, N-(2,4-Dichloro-phenyl)-N-ethyl-2-(1-methyl-piperidin-4-yl)-acetamide] | 175 to 177 °C
CCN(C(=O)CC1CCN(C)CC1)c1c(Cl)cccc1Cl (as salt: fumaric acid salt) [Compound D16, N-(2,6-Dichloro-phenyl)-N-ethyl-2-(1-methyl-piperidin-4-yl)-acetamide] | 167 to 169 °C
CCN(C(=O)CC1CCN(C)CC1)c1ccc(Cl)c(Cl)c1Cl (as salt: fumaric acid salt) [Compound D18, N-Ethyl-2-(1-methyl-piperidin-4-yl)-N-(2,3,4-trichloro-phenyl)-acetamide] | 181 to 183 °C
CCCN(C(=O)CC1CCN(C)CC1)c1ccc(Cl)c(Cl)c1 (as salt: fumaric acid salt) [Compound D20, N-(3,4-Dichloro-phenyl)-2-(1-methyl-piperidin-4-yl)-N-propyl-acetamide] | 144 to 146 °C
CCN(C(=O)CC1CCN(C)CC1)c1ccc(Cl)c(Cl)c1 (as salt: hydrochloric acid salt) [Compound D1, N-(3,4-Dichloro-phenyl)-N-ethyl-2-(1-methyl-piperidin-4-yl)-acetamide] | 153 to 155 °C

Further lines, results first:

melting point | Compound
58 to 60 °C | CCN(C(=O)CC1CCNCC1)c1ccc(Br)c(Br)c1 (as salt: fumaric acid salt) [Compound C11, N-(3,4-Dibromo-phenyl)-N-ethyl-2-piperidin-4-yl-acetamide]
55 to 58 °C | CCCN(C(=O)CC1CCNCC1)c1ccc(Cl)c(Cl)c1 (as salt: fumaric acid salt) [Compound C12, N-(3,4-Dichloro-phenyl)-2-piperidin-4-yl-N-propyl-acetamide]
141 to 143 °C | CCN(C(=O)CC1CCNCC1)c1ccc(Cl)c(Br)c1 (as salt: fumaric acid salt) [Compound C13, N-(3-Bromo-4-chloro-phenyl)-N-ethyl-2-piperidin-4-yl-acetamide]
159 to 161 °C | CCN(C(=O)CC1CCNCC1)c1ccc(Br)c(Cl)c1 (as salt: fumaric acid salt) [Compound D4, N-(4-Bromo-3-chloro-phenyl)-N-ethyl-2-piperidin-4-yl-acetamide]
112 to 114 °C | CCN(C(=O)CC1CCNCC1)c1ccc(Cl)cc1Cl (as salt: fumaric acid salt) [Compound D5, N-(2,4-Dichloro-phenyl)-N-ethyl-2-piperidin-4-yl-acetamide]
